Columns and labels:
Experiment in all cases: BIO3-BIO1 mutant enzyme activity in the presence of herbicide, percentage inhibition (fluorometric DAPA assay)
Format in all cases: biochemical
Details in all cases: read-out: percentage inhibition
[1] = target: T1, Arabidopsis thaliana BIO3-BIO1 (BioDA) mutants (Arabidopsis thaliana, UniProt B0F481, P421L)
T1 construct: with the predicted N-terminal mitochondrial transit peptide removed; 6xHis-tag (N); thrombin cleavage site (N); made in house; host or cells: E. coli BL21 (DE3) bioA
T1 sequence (B0F481 23-833 P421L): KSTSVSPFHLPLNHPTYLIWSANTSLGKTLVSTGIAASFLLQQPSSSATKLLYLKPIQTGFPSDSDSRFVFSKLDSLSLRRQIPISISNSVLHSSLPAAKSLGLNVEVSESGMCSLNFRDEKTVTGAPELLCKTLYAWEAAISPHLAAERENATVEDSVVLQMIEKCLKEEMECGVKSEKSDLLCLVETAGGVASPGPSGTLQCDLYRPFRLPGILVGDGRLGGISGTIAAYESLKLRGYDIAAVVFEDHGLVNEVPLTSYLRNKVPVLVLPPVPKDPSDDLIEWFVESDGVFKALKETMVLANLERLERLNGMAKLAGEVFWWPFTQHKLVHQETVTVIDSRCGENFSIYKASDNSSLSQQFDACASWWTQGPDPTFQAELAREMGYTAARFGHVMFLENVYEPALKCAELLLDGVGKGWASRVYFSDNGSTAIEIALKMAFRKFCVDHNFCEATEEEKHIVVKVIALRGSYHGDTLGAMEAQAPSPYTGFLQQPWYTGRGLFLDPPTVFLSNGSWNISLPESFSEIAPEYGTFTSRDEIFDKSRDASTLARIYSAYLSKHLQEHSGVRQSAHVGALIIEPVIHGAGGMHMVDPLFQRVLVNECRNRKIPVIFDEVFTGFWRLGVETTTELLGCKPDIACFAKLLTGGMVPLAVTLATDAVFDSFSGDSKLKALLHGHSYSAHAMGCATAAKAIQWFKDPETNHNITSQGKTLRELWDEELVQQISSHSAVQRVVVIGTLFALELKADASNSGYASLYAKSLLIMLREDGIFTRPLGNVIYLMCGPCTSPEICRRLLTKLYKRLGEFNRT
Summary of the method: (§1)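 His-tagged Arabidopsis BIO3-BIO1 mutants, expressed in E. coli and purified by IMAC and SEC, were preincubated at 50 nM with herbicide for 10 min at 20 °C in EPPS pH 8.6 with pyridoxal phosphate. Reaction with 100 μM spermidine and 20 μM KAPA ran 75 min at 20 °C; DAPA was derivatised with o-phthalaldehyde and read at ex 410/em 470 nm. […].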

[2] = target: T2, Arabidopsis thaliana BIO3-BIO1 (BioDA) mutants (Arabidopsis thaliana, UniProt B0F481, F348K)
T2 construct: with the predicted N-terminal mitochondrial transit peptide removed; 6xHis-tag (N); thrombin cleavage site (N); made in house; host or cells: E. coli BL21 (DE3) bioA
T2 sequence (B0F481 23-833 F348K): as the sequence (B0F481 23-833 P421L) above, with F326K, L399P counted along it
Summary of the method: as §1

[3] = target: T3, Arabidopsis thaliana BIO3-BIO1 (BioDA) mutants (Arabidopsis thaliana, UniProt B0F481, P529A)
T3 construct: with the predicted N-terminal mitochondrial transit peptide removed; 6xHis-tag (N); thrombin cleavage site (N); made in house; host or cells: E. coli BL21 (DE3) bioA
T3 sequence (B0F481 23-833 P529A): as the sequence (B0F481 23-833 P421L) above, with L399P, P507A counted along it
Summary of the method: as §1

[4] = target: T4, Arabidopsis thaliana BIO3-BIO1 (BioDA) mutants (Arabidopsis thaliana, UniProt B0F481, A609H)
T4 construct: with the predicted N-terminal mitochondrial transit peptide removed; 6xHis-tag (N); thrombin cleavage site (N); made in house; host or cells: E. coli BL21 (DE3) bioA
T4 sequence (B0F481 23-833 A609H): as the sequence (B0F481 23-833 P421L) above, with L399P, A587H counted along it
Summary of the method: as §1

[5] = target: T5, Arabidopsis thaliana BIO3-BIO1 (BioDA) mutants (Arabidopsis thaliana, UniProt B0F481, A609Y)
T5 construct: with the predicted N-terminal mitochondrial transit peptide removed; 6xHis-tag (N); thrombin cleavage site (N); made in house; host or cells: E. coli BL21 (DE3) bioA
T5 sequence (B0F481 23-833 A609Y): as the sequence (B0F481 23-833 P421L) above, with L399P, A587Y counted along it
Summary of the method: as §1

[6] = target: T6, Arabidopsis thaliana BIO3-BIO1 (BioDA) mutants (Arabidopsis thaliana, UniProt B0F481, S509H)
T6 construct: with the predicted N-terminal mitochondrial transit peptide removed; 6xHis-tag (N); thrombin cleavage site (N); made in house; host or cells: E. coli BL21 (DE3) bioA
T6 sequence (B0F481 23-833 S509H): as the sequence (B0F481 23-833 P421L) above, with L399P, S487H counted along it
Summary of the method: as §1

[7] = target: T7, Arabidopsis thaliana BIO3-BIO1 (BioDA) mutants (Arabidopsis thaliana, UniProt B0F481, P510L)
T7 construct: with the predicted N-terminal mitochondrial transit peptide removed; 6xHis-tag (N); thrombin cleavage site (N); made in house; host or cells: E. coli BL21 (DE3) bioA
T7 sequence (B0F481 23-833 P510L): as the sequence (B0F481 23-833 P421L) above, with L399P, P488L counted along it
Summary of the method: as §1

[8] = target: T8, Arabidopsis thaliana BIO3-BIO1 (BioDA) mutants (Arabidopsis thaliana, UniProt B0F481, P510A)
T8 construct: with the predicted N-terminal mitochondrial transit peptide removed; 6xHis-tag (N); thrombin cleavage site (N); made in house; host or cells: E. coli BL21 (DE3) bioA
T8 sequence (B0F481 23-833 P510A): as the sequence (B0F481 23-833 P421L) above, with L399P, P488A counted along it
Summary of the method: as §1

[9] = target: T9, Arabidopsis thaliana BIO3-BIO1 (BioDA) mutants (Arabidopsis thaliana, UniProt B0F481, A609K)
T9 construct: with the predicted N-terminal mitochondrial transit peptide removed; 6xHis-tag (N); thrombin cleavage site (N); made in house; host or cells: E. coli BL21 (DE3) bioA
T9 sequence (B0F481 23-833 A609K): as the sequence (B0F481 23-833 P421L) above, with L399P, A587K counted along it
Summary of the method: as §1

[10] = target: T10, Arabidopsis thaliana BIO3-BIO1 (BioDA) mutants (Arabidopsis thaliana, UniProt B0F481, S509I)
T10 construct: with the predicted N-terminal mitochondrial transit peptide removed; 6xHis-tag (N); thrombin cleavage site (N); made in house; host or cells: E. coli BL21 (DE3) bioA
T10 sequence (B0F481 23-833 S509I): as the sequence (B0F481 23-833 P421L) above, with L399P, S487I counted along it
Summary of the method: as §1

[11] = target: T11, Arabidopsis thaliana BIO3-BIO1 (BioDA) mutants (Arabidopsis thaliana, UniProt B0F481, T512N)
T11 construct: with the predicted N-terminal mitochondrial transit peptide removed; 6xHis-tag (N); thrombin cleavage site (N); made in house; host or cells: E. coli BL21 (DE3) bioA
T11 sequence (B0F481 23-833 T512N): as the sequence (B0F481 23-833 P421L) above, with L399P, T490N counted along it
Summary of the method: as §1

[12] = target: T12, Arabidopsis thaliana BIO3-BIO1 (BioDA) mutants (Arabidopsis thaliana, UniProt B0F481, A609C)
T12 construct: with the predicted N-terminal mitochondrial transit peptide removed; 6xHis-tag (N); thrombin cleavage site (N); made in house; host or cells: E. coli BL21 (DE3) bioA
T12 sequence (B0F481 23-833 A609C): as the sequence (B0F481 23-833 P421L) above, with L399P, A587C counted along it
Summary of the method: as §1

CCOC(=O)c1nn(-c2ccc3c(c2)OC(F)(F)C(F)(F)O3)c2cccc(C(C)=O)c2c1=O [Compound A, ethyl 5-acetyl-4-oxo-1-(2,2,3,3-tetrafluoro-1,4-benzodioxin-6-yl)cinnoline-3-carboxylate]
inhibition at 1 µM [1]: 61% | inhibition at 1 µM [2]: 11% | inhibition at 1 µM [3]: 0% | inhibition at 1 µM [4]: 0% | inhibition at 1 µM [5]: 0% | inhibition at 1 µM [6]: 0% | inhibition at 1 µM [7]: 82% | inhibition at 1 µM [8]: 4% | inhibition at 1 µM [9]: 18% | inhibition at 1 µM [10]: 0% | inhibition at 1 µM [11]: 21% | inhibition at 1 µM [12]: 18%

CCn1c(C)c(-c2ccc(F)cc2F)c(=O)c(C(=O)O)c1-c1ccc(Cl)c(Cl)c1 [Compound C, 2-(3,4-dichlorophenyl)-5-(2,4-difluorophenyl)-1-ethyl-6-methyl-4-oxo-pyridine-3-carboxylic acid]
inhibition at 0.2 µM [1]: 4% | inhibition at 1 µM [1]: 35% | inhibition at 5 µM [1]: 67% | inhibition at 0.2 µM [2]: 0% | inhibition at 1 µM [2]: 11% | inhibition at 5 µM [2]: 15% | inhibition at 0.2 µM [3]: 4% | inhibition at 1 µM [3]: 25% | inhibition at 5 µM [3]: 71% | inhibition at 0.2 µM [4]: 0% | inhibition at 1 µM [4]: 7% | inhibition at 5 µM [4]: 20% | inhibition at 0.2 µM [5]: 0% | inhibition at 1 µM [5]: 0% | inhibition at 5 µM [5]: 43% | inhibition at 0.2 µM [6]: 20% | inhibition at 1 µM [6]: 75% | inhibition at 5 µM [6]: 98% | inhibition at 0.2 µM [7]: 67% | inhibition at 1 µM [7]: 84% | inhibition at 5 µM [7]: 96% | inhibition at 0.2 µM [8]: 0% | inhibition at 1 µM [8]: 28% | inhibition at 5 µM [8]: 70% | inhibition at 0.2 µM [9]: 65% | inhibition at 1 µM [9]: 80% | inhibition at 5 µM [9]: 87% | inhibition at 0.2 µM [10]: 38% | inhibition at 1 µM [10]: 84% | inhibition at 5 µM [10]: 99% | inhibition at 0.2 µM [11]: 29% | inhibition at 1 µM [11]: 74% | inhibition at 5 µM [11]: 93% | inhibition at 0.2 µM [12]: 29% | inhibition at 1 µM [12]: 73% | inhibition at 5 µM [12]: 94%

CCn1c(Cn2ccc(C(F)(F)F)n2)cc(=O)c(C(=O)O)c1-c1ccc(Cl)c(Cl)c1 [Compound L, 2-(3,4-dichlorophenyl)-1-ethyl-4-oxo-6-[[3-(trifluoromethyl)pyrazol-1-yl]methyl]pyridine-3-carboxylic acid]
inhibition at 0.01 µM [1]: 0% | inhibition at 0.075 µM [1]: 10% | inhibition at 0.5 µM [1]: 45% | inhibition at 0.01 µM [2]: 0% | inhibition at 0.075 µM [2]: 2% | inhibition at 0.5 µM [2]: 22% | inhibition at 0.01 µM [3]: 0% | inhibition at 0.075 µM [3]: 0% | inhibition at 0.5 µM [3]: 60% | inhibition at 0.01 µM [4]: 0% | inhibition at 0.075 µM [4]: 0% | inhibition at 0.5 µM [4]: 0% | inhibition at 0.01 µM [5]: 0% | inhibition at 0.075 µM [5]: 0% | inhibition at 0.5 µM [5]: 0% | inhibition at 0.01 µM [7]: 35% | inhibition at 0.075 µM [7]: 88% | inhibition at 0.5 µM [7]: 97% | inhibition at 0.01 µM [8]: 0% | inhibition at 0.075 µM [8]: 0% | inhibition at 0.5 µM [8]: 63% | inhibition at 0.01 µM [9]: 36% | inhibition at 0.075 µM [9]: 52% | inhibition at 0.5 µM [9]: 64% | inhibition at 0.01 µM [12]: 4% | inhibition at 0.075 µM [12]: 22% | inhibition at 0.5 µM [12]: 30%

CCn1c(-c2ccc(Cl)c(Cl)c2)c(C(=O)O)c(=O)c2cc(F)ccc21 [Compound M, 2-(3,4-dichlorophenyl)-1-ethyl-6-fluoro-4-oxo-quinoline-3-carboxylic acid]
inhibition at 0.2 µM [1]: 0% | inhibition at 1 µM [1]: 6% | inhibition at 5 µM [1]: 31% | inhibition at 0.2 µM [2]: 0% | inhibition at 1 µM [2]: 1% | inhibition at 5 µM [2]: 24% | inhibition at 0.2 µM [3]: 0% | inhibition at 1 µM [3]: 25% | inhibition at 5 µM [3]: 68% | inhibition at 0.2 µM [4]: 7% | inhibition at 1 µM [4]: 2% | inhibition at 5 µM [4]: 25% | inhibition at 0.2 µM [5]: 0% | inhibition at 1 µM [5]: 4% | inhibition at 5 µM [5]: 45% | inhibition at 0.2 µM [6]: 23% | inhibition at 1 µM [6]: 82% | inhibition at 5 µM [6]: 98% | inhibition at 0.2 µM [7]: 54% | inhibition at 1 µM [7]: 77% | inhibition at 5 µM [7]: 94% | inhibition at 0.2 µM [8]: 0% | inhibition at 1 µM [8]: 14% | inhibition at 5 µM [8]: 51% | inhibition at 0.2 µM [9]: 0% | inhibition at 1 µM [9]: 78% | inhibition at 5 µM [9]: 92% | inhibition at 0.2 µM [10]: 30% | inhibition at 1 µM [10]: 65% | inhibition at 5 µM [10]: 92% | inhibition at 0.2 µM [11]: 27% | inhibition at 1 µM [11]: 74% | inhibition at 5 µM [11]: 93% | inhibition at 0.2 µM [12]: 10% | inhibition at 1 µM [12]: 47% | inhibition at 5 µM [12]: 78%

Reference: patent US20260226493A1, “HERBICIDE RESISTANT PLANTS” (SYNGENTA CROP PROTECTION AG, priority 2023, published 2026)
